Source: patent US7998681B2, “Diagnosis and therapy of antibody-mediated inflammatory auto-immune disorders” (Los Angeles Biomedical Research Institute at Harbor-UCLA …, priority 2000, dated 2011)

Assays:
[1] = system: Thy-1^+ and Thy-1^− fibroblasts; test: IL-8 production in Thy-1+ and Thy-1- orbital fibroblast subsets; assay type: cell-based, human; conditions: IL-1β treated
From the text: FIGS. 11A-11C show differential production in TAO-derived Thy-1^+ and Thy-1^− subsets of PGE2 (11A) and IL-8 in response to IL-1β stimulation (11B), and IL-16 in response to stimulation with Graves' IgG (11C).
With regard to cytokine expression, both subsets fail to generate detectable IL-6 under basal culture conditions but synthesize high levels of the cytokine when treated with IL-1β. The magnitude of these responses is similar in the two fibroblast populations. Similarly, both subsets express low basal levels of IL-8 (FIG. 11B). When treated with IL-1β, Thy-1^− fibroblasts synthesize and release extremely high levels of IL-8 and this induction is substantially (5.5-fold) greater than that occurring in the Thy-1^+ subset.

[2] = system: fibroblasts from patients with GD; test: T lymphocyte migration (chemotaxis) assay of conditioned medium from treated fibroblasts, GD donors; assay type: cell-based, human; conditions: IgG 100 ng/ml, IL-1β 10 ng/ml, 24 hours
Procedure: The general migration assay is described in detail in Sciaky, D., et al., “Cultured human fibroblasts express constitutive IL-16 mRNA: Cytokine induction of active IL-16 protein synthesis through a caspase-3-dependent mechanism,” J. Immunol. 164(7):3806-14 (2000), hereby incorporated fully by reference. Briefly, fibroblasts from TAO and normal orbital tissue were seeded in 24-well arrays and grown to confluence. Monolayers were shifted containing 1% FBS to which nothing, purified normal or TAO IgG was added for various time intervals. Medium was collected and stored until use at −80° C. Chemotaxis was examined using Boyden chambers to which NWNA-T lymphocytes were added as the cellular targets. 50 μl cell suspension (10^7 cells/ml) were placed in the upper compartments of 48-well micro-chemotaxis chambers separated from 32 μl of serum samples by 8 μm micropore nitrocellulose filters (Neuroprobe). These were incubated at 37° C. in 5% CO2 environment for 3 hr. Filters were fixed, stained with hematoxylin, dehydrated, mounted on glass slides and viewed by light microscopy. Lymphocyte migration was quantified by counting the total number of cells migrating beyond a fixed depth. This depth was set to routinely identify a baseline migration under control conditions of 10-15 cells per high power field. Five such fields were counted in duplicate for each sample and the means±SD were calculated and expressed as percentage values of baseline cell migration in control buffer alone (100%). For each set of experimental conditions, at least three separate determinations were performed. Differences between experimental groups were analyzed by the Student t test using absolute values obtained for lymphocyte migration and statistical difference was accepted at the 95% level of confidence.
To assess specificity for IL-16, experiments were conducted by incubating samples of culture media for 15 min with neutralizing concentrations of anti-IL-16 MAB (clone 14. 1, 10 μg/ml), which blocks the chemotactic activity of 50 ng/ml of rIL-16. Anti-RANTES MAB (5 μg/ml) having an ND50 of 200 ng/ml rRANTES was used to neutralize RANTES as described in Sciaky D., Brazer, W., Center, D. M., Cruikshank, W. W. and Smith, T. J.: Cultured human fibroblasts express constitutive IL-16 mRNA: Cytokine induction of active IL-16 protein synthesis through a caspase-3-dependent mechanism. J. Immunol. 164(7):3806-14, 2000).
Referring to FIGS. 3A-3C, serum concentrations of IL-16 are elevated in patients with active TAO. Moreover, both IL-16 and PGHS-2 protein can be detected in TAO orbital tissue. The concentration of IL-16 is determined in sera from either patients with Graves' disease or normal controls. The sera are subjected to an ELISA assay, which utilizes an anti-IL-16 specific antibody. IL-16 is detected by standard immunohistochemical techniques in thin sections harvested from affected orbital connective tissues from a patient with severe Graves' ophthalmopathy. In a separate measurement of IL-16 dependent T-cell migration, a panel of 11 different fibroblast strains from patients with Graves' disease and 5 from individuals without known thyroid disease were challenged with Graves' IgG (100 ng/ml), normal IgG (100 ng/ml) or IL-1β (10 ng/ml) for 24 hours and assessed for T cell migration activity and IL-16 production (Table II). Graves' IgG induced IL-16 dependent cell migration in 10 of the Graves' fibroblast strains which derived from orbit and skin from various anatomic regions. Included were strains from the pretibial skin as well as the abdominal wall and the neck. The latter two sites rarely manifest Graves' disease. A substantial fraction of Graves' IgG provoked T cell migration activity in most of these strains was resistant to neutralization with anti-IL-16. Similarly, chemoattractants produced by RA fibroblasts can be measured by T-cell migration. […]

IL-1β: pro-inflammatory cytokine used to activate fibroblasts
IL-8 induction in Thy-1^− relative to Thy-1^+ subset [1]: 5.5 fold | T Cell Migration (% control) ([2]; strain 1, Orbit): 194 +/− 11 % control | T Cell Migration +anti-IL-16 ([2]; strain 1, Orbit): 149 +/− 8 % control | T Cell Migration +anti-RANTES ([2]; strain 1, Orbit): 167 +/− 10 % control | T Cell Migration (% control) ([2]; strain 2, Orbit): 195 ± 13 % control | T Cell Migration +anti-IL-16 ([2]; strain 2, Orbit): 171 ± 7 % control | T Cell Migration +anti-RANTES ([2]; strain 2, Orbit): 170 ± 8 % control | T Cell Migration (% control) ([2]; strain 3, Abdominal skin): 195 +/− 13 % control | T Cell Migration +anti-IL-16 ([2]; strain 3, Abdominal skin): 171 +/− 7 % control | T Cell Migration +anti-RANTES ([2]; strain 3, Abdominal skin): 171 +/− 8 % control | T Cell Migration (% control) ([2]; strain 4, Orbit): 236 ± 19 % control | T Cell Migration +anti-IL-16 ([2]; strain 4, Orbit): 175 ± 12 % control | T Cell Migration +anti-RANTES ([2]; strain 4, Orbit): 188 ± 9 % control | T Cell Migration (% control) ([2]; strain 5, Abdominal skin): 144 ± 8 % control | T Cell Migration +anti-IL-16 ([2]; strain 5, Abdominal skin): 128 ± 8 % control | T Cell Migration +anti-RANTES ([2]; strain 5, Abdominal skin): 131 ± 5 % control | T Cell Migration (% control) ([2]; strain 6, Neck skin): 211 ± 13 % control | T Cell Migration +anti-IL-16 ([2]; strain 6, Neck skin): 148 ± 10 % control | T Cell Migration +anti-RANTES ([2]; strain 6, Neck skin): 178 ± 12 % control | T Cell Migration (% control) ([2]; strain 7, Pretibial skin): 236 ± 19 % control | T Cell Migration +anti-IL-16 ([2]; strain 7, Pretibial skin): 175 ± 12 % control | T Cell Migration +anti-RANTES ([2]; strain 7, Pretibial skin): 188 ± 9 % control | T Cell Migration (% control) ([2]; strain 8, Pretibial skin): 204 ± 14 % control | T Cell Migration +anti-IL-16 ([2]; strain 8, Pretibial skin): 164 ± 10 % control | T Cell Migration +anti-RANTES ([2]; strain 8, Pretibial skin): 173 ± 8 % control | T Cell Migration (% control) ([2]; strain 9, Orbit): 243 +/− 13 % control | T Cell Migration +anti-IL-16 ([2]; strain 9, Orbit): 167 +/− 11 % control | T Cell Migration +anti-RANTES ([2]; strain 9, Orbit): 189 +/− 10 % control | T Cell Migration (% control) ([2]; strain 10, Orbit): 248 +/− 19 % control | T Cell Migration +anti-IL-16 ([2]; strain 10, Orbit): 189 +/− 14 % control | T Cell Migration +anti-RANTES ([2]; strain 10, Orbit): 206 +/− 12 % control | T Cell Migration (% control) ([2]; strain 11, Orbit): 210 +/− 13 % control | T Cell Migration +anti-IL-16 ([2]; strain 11, Orbit): 162 +/− 11 % control | T Cell Migration +anti-RANTES ([2]; strain 11, Orbit): 183 +/− 6 % control
